Data on 3 compounds can be found in US20100152291A1, “PRODUCTION METHOD OF CAPSINOID BY DEHYDRATING CONDENSATION, STABILIZING METHOD OF CAPSINOID, AND CAPSINOID COMPOSITION” (AJINOMOTO CO., INC., priority 2005, published 2010).

Data set [1] in a line: Stability of capsinoid containing fatty acid, preserved in hexane at 5° C., purity by HPLC. The class given is physicochemical. The method, then: For example, dihydrocapsiate was synthesized using a small excess of fatty acid, and dihydrocapsiate obtained by preparatively separating together with the excess fatty acid remaining in about 2 wt % relative to dihydrocapsiate was analyzed by HPLC.
(§1) The HPLC measurement conditions of capsinoid are as follows. HPLC conditions: column: Inertsil C8 3 u μm (diameter 4.0 mm×100 mm) eluent: A mixed solvent of eluents A, B shown below and a buffer was eluted by gradient elution method. […]
(§2) eluent A: CH3CN:buffer=80:20 eluent B: CH3CN:buffer=0:100 […]
(§3) temperature: room temperature
Capsiate obtained in the same manner as in Example 5, which contained 3.2 wt % of fatty acid, was analyzed by HPLC to find the purity of 97.8 area %. This capsiate was preserved in a hexane solvent at 5° C. for 30 days and analyzed by HPLC.
Dihydrocapsiate obtained in the same manner as in Example 15, which contained 2.0 wt % of fatty acid, was analyzed by HPLC to find 99.2 area %. This dihydrocapsiate was preserved in a hexane solvent at 5° C. for 30 days and analyzed by HPLC.

The nature of data set [2]: Stability of vanillyl decanoate in acetonitrile with or without decanoic acid, purity by HPLC. The class given is physicochemical.
Excerpt: When ester compound (3) is separated and purified by column chromatography, fatty acid (1) present in excess in the reaction mixture has an Rf value similar to that of ester compound (3); therefore, the separation and purification of ester compound (3) is associated with difficulty. […] For example, when vanillyl decanoate was synthesized from decanoic acid and vanillyl alcohol, separated and purified from decanoic acid by silica gel column chromatography to give pure vanillyl decanoate, which was dissolved in acetonitrile and analyzed by HPLC. As a result, the purity of vanillyl decanoate was 95.6 area %. However, when the sample was reanalyzed 62 hours later, the purity decreased to 82.0 area %. […] Vanillyl decanoate is considered to have become unstable upon separation from decanoic acid. Therefore, fatty acid (1), difficult to be separated from ester compound (3), is preferably left coexisted rather than being separated, from the aspect of stability of ester compound (3).
For example, when 9.1 wt % of decanoic acid was added, in acetonitrile, to pure vanillyl decanoate separated from decanoic acid, the purity of vanillyl decanoate was 97.6 area % even after 19.5 hours and the purity was maintained.
as §1, §2, §3
Vanillyl decanoate was separately synthesized from vanillyl alcohol and decanoic acid, and its stability was examined. Decanoic acid was separated by silica gel column chromatography, and the purified product was dissolved in acetonitrile and analyzed by […]
HPLC to find 95.6 area %. When the sample was reanalyzed 62 hours later, the purity decreased to 82.0 area %, and vanillyl decanoate was confirmed to have been decomposed.
Decanoic acid was separated by silica gel column chromatography, and the purified product, vanillyl decanoate, was dissolved in acetonitrile and analyzed by HPLC 9 hours later to find 90.4 area %. To the acetonitrile solution of the purified product, vanillyl decanoate, was added 9.1 wt % of decanoic acid, and the mixture was analyzed by HPLC 19.5 hours later to find 97.6 area %, showing increase in the purity as compared to the absence of decanoic acid addition. Similarly, 16.7 wt %, 28.7 wt % and 44.8 wt % of decanoic acid was added to vanillyl decanoate to result in higher purities of 98.1 area %, 98.1 area % and 97.9 area % as compared to the absence of decanoic acid addition.

Take `COc1cc(COC(=O)CCCC/C=C/C(C)C)ccc1O` [capsiate]: the “purity by HPLC” value came to 97.8 area % in data set [1] (containing 3.2 wt % of fatty acid, before preservation) and 97.6 area % in data set [1] (containing 3.2 wt % of fatty acid, preserved in hexane at 5° C. for 30 days).
Regarding `COc1cc(COC(=O)CCCCCCC(C)C)ccc1O` [dihydrocapsiate], the “purity by HPLC” value in data set [1] (containing 2.0 wt % of fatty acid, preserved in hexane at 5° C. for 30 days) came to 99.3 area %. In addition, the “time stably preserved without decomposition” value in data set [1] (with about 2 wt % excess fatty acid, in hexane at 5° C.) is given as “at least 30 days”.
For `CCCCCCCCCC(=O)OCc1ccc(O)c(OC)c1` [vanillyl decanoate], the “purity by HPLC” value in data set [2] (acetonitrile solution, 9.1 wt % of decanoic acid added, 19.5 hours later) is given as 97.6 area %; in data set [2] (acetonitrile solution, 16.7 wt % of decanoic acid added), 98.1 area %; in data set [2] (acetonitrile solution, 28.7 wt % of decanoic acid added), 98.1 area %; in data set [2] (acetonitrile solution, 44.8 wt % of decanoic acid added) it was 97.9 area %; in data set [2] (pure product separated from decanoic acid, dissolved in acetonitrile, first analysis) it was 95.6 area %; in data set [2] (pure product separated from decanoic acid, in acetonitrile, reanalyzed 62 hours later), 82.0 area %. Moreover, in data set [2] (purified product without decanoic acid, in acetonitrile, 9 hours later), the “purity by HPLC” value is recorded as 90.4 area %.
